Results on 30 molecules are retold here after patent US11661426B2, “Imidazole-containing inhibitors of ALK2 kinase” (BioCryst Pharmaceuticals, Inc., priority 2017, dated 2023).

For the assay, the target named is ALK2 (Homo sapiens (Human), UniProt Q04771). In words: ALK2 inhibition, LanthaScreen Eu Kinase Binding Assay (ThermoFisher Scientific / Life Technologies). The conditions noted are these: read-out: Measured Ki (IC50) Value for Compounds: IC50. As to the method: Biochemical assays to measure the inhibitory effects of the compounds were performed by ThermoFisher Scientific (Life Technologies). ALK2 inhibition was tested using LanthaScreen™ Eu Kinase Binding Assay screening protocol.
Sequence of ALK2 (Q04771 21-509): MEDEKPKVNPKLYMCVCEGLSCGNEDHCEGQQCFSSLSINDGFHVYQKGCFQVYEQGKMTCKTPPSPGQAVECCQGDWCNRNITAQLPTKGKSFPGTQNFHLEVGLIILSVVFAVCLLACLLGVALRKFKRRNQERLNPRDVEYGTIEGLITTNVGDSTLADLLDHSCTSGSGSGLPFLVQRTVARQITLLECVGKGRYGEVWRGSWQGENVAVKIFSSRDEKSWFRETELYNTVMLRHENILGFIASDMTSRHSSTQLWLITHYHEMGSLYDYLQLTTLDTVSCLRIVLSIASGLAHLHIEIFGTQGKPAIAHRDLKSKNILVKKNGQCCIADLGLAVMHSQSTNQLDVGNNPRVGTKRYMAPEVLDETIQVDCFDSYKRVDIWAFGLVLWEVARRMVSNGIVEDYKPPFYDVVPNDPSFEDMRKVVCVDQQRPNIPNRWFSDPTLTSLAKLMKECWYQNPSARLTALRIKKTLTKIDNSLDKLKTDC
(In TR-FRET formats the signal depends on donor and acceptor labels being close together.)
For orientation: IC50 means the point on the concentration scale where inhibition reaches its midpoint. Consider `COc1cc(-n2cnc(Nc3nc(N4CCC[C@H]4CO)nc4cc(C#N)ccc34)c2)cc(OC)c1OC` [Compound 347a, (S)-2-(2-(hydroxymethyl)pyrrolidin-1-yl)-4-((1-(3,4,5-trimethoxyphenyl)-1H-imidazol-4-yl)amino)quinazoline-7-carbonitrile], for which the IC50 is below 100 nM.

In the case of `COc1cc(-n2cnc(Nc3nc(N4CCC[C@@H]4CO)nn4c(CN5CCCCC5)ccc34)c2)cc(OC)c1OC` [Compound 348a, (R)-(1-(7-(piperidin-1-ylmethyl)-4-((1-(3,4,5-trimethoxyphenyl)-1H-imidazol-4-yl)amino)pyrrolo[2,1-f][1,2,4]triazin-2-yl)pyrrolidin-2-yl)methanol], the IC50 was below 100 nM.

For the molecule `COc1cc(-n2cnc(Nc3nc(N4CCC[C@@H]4C(N)=O)nn4c(CN5CCCCC5)ccc34)c2)cc(OC)c1OC` [Compound 349a, (R)-1-(7-(piperidin-1-ylmethyl)-4-((1-(3,4,5-trimethoxyphenyl)-1H-imidazol-4-yl)amino)pyrrolo[2,1-f][1,2,4]triazin-2-yl)pyrrolidine-2-carboxamide], the IC50 is below 100 nM.

As for `COC(=O)c1cc(-n2cnc(Nc3nc(N4CCC[C@H]4C(N)=O)nn4cccc34)c2)cc(OC)c1OC` [Compound 350d, (S)-methyl 5-(4-((2-(2-carbamoylpyrrolidin-1-yl)pyrrolo[2,1-f][1,2,4]triazin-4-yl)amino)-1H-imidazol-1-yl)-2,3-dimethoxybenzoate], the IC50 was below 100 nM.

`COc1cc(-n2cnc(Nc3nc(N4CCC[C@H]4C(N)=O)nn4cccc34)c2)cc(C(=O)NC2CCCC2)c1O` [Compound 351d, (S)-1-(4-((1-(3-(cyclopentylcarbamoyl)-4-hydroxy-5-methoxyphenyl)-1H-imidazol-4-yl)amino)pyrrolo[2,1-f][1,2,4]triazin-2-yl)pyrrolidine-2-carboxamide]: the IC50 is above 1000 nM.

For the molecule `OC[C@@H]1CCCN1c1nc(Nc2nc3ccccc3o2)c2sccc2n1` [Compound 352c, (S)-(1-(4-(benzo[d]oxazol-2-ylamino)thieno[3,2-d]pyrimidin-2-yl)pyrrolidin-2-yl)methanol], the 50% inhibitory concentration (IC50) is above 1000 nM.

Regarding `Nc1n[nH]c2ccccc12` [Compound 353a, 1H-indazol-3-amine], the IC50 was above 1000 nM.

For `OC[C@@H]1CCCN1c1nc(Nc2cc(-c3ccccc3)[nH]n2)nc2ccoc12` [Compound 354b, (S)-(1-(2-((5-phenyl-1H-pyrazol-3-yl)amino)furo[3,2-d]pyrimidin-4-yl)pyrrolidin-2-yl)methanol], the IC50 is above 1000 nM.

Consider `COC(=O)c1cc(-n2cnc(Nc3nc(N4CCC[C@H]4CO)c4cccn4n3)c2)cc(OC)c1OC` [Compound 355a, (S)-methyl 5-(4-((4-(2-(hydroxymethyl)pyrrolidin-1-yl)pyrrolo[2,1-f][1,2,4]triazin-2-yl)amino)-1H-imidazol-1-yl)-2,3-dimethoxybenzoate], for which the IC50 was below 100 nM.

Consider `COc1cc(-n2cnc(Nc3nc(N4CCC[C@H]4CO)c4ccc(C#N)cc4n3)c2)cc(OC)c1OC` [Compound 356b, (S)-4-(2-(hydroxymethyl)pyrrolidin-1-yl)-2-((1-(3,4,5-trimethoxyphenyl)-1H-imidazol-4-yl)amino)quinazoline-7-carbonitrile], for which the IC50 was below 100 nM.

For `COc1cc(-c2ccc(Nc3nc(N4CCC[C@H]4CO)c4ccccc4n3)nc2)cc(OC)c1OC` [Compound 357d, (S)-(1-(2-((5-(3,4,5-trimethoxyphenyl)pyridin-2-yl)amino)quinazolin-4-yl)pyrrolidin-2-yl)methanol], the IC50 is above 1000 nM.

For the molecule `COc1cc(-n2cnc(Nc3nc(N4CCC[C@H]4CO)nc4cc(N5CCCCC5)ccc34)c2)cc(OC)c1OC` [Compound 358a, (S)-(1-(7-(piperidin-1-yl)-4-((1-(3,4,5-trimethoxyphenyl)-1H-imidazol-4-yl)amino)quinazolin-2-yl)pyrrolidin-2-yl)methanol], the IC50 was below 100 nM.

In the case of `COc1cc(-n2cnc(Nc3nc4c(c(N5CCC[C@H]5CO)n3)CN(C(=O)OC(C)(C)C)C4)c2)cc(OC)c1OC` [Compound 359c, (S)-tert-butyl 4-(2-(hydroxymethyl)pyrrolidin-1-yl)-2-(1-(3,4,5-trimethoxyphenyl)-1H-imidazol-4-ylamino)-5H-pyrrolo[3,4-d]pyrimidine-6(7H)-carboxylate], the IC50 is below 100 nM.

Take `COc1cc(-n2cnc(Nc3nc4c(c(N5CCC[C@H]5CO)n3)CNC4)c2)cc(OC)c1OC` [Compound 359d, (S)-(1-(2-(1-(3,4,5-trimethoxyphenyl)-1H-imidazol-4-ylamino)-6,7-dihydro-5H-pyrrolo[3,4-d]pyrimidin-4-yl)pyrrolidin-2-yl)methanol]: the IC50 is below 100 nM.

As to `COc1cc(-n2cnc(Nc3nc(N4CCC[C@H]4C(N)=O)nc4c3CNC4)c2)cc(OC)c1OC` [Compound 360c, (S)-1-(4-(1-(3,4,5-trimethoxyphenyl)-1H-imidazol-4-ylamino)-6,7-dihydro-5H-pyrrolo[3,4-d]pyrimidin-2-yl)pyrrolidine-2-carboxamide], the IC50 is below 100 nM.

In the case of `COc1cc(-n2cnc(Nc3nc(N4CCC[C@H]4CO)c4ccc(-c5cccc(N)c5)cc4n3)c2)cc(OC)c1OC` [Compound 361c, (S)-(1-(7-(3-aminophenyl)-2-((1-(3,4,5-trimethoxyphenyl)-1H-imidazol-4-yl)amino)quinazolin-4-yl)pyrrolidin-2-yl)methanol], the IC50 was below 100 nM.

`COc1cc(-n2cnc(Nc3nc(N4CCC[C@H]4CO)c4ccc(-c5cccc(F)c5)cc4n3)c2)cc(OC)c1OC` [Compound 362b, (S)-(1-(7-(3-fluorophenyl)-2-((1-(3,4,5-trimethoxyphenyl)-1H-imidazol-4-yl)amino)quinazolin-4-yl)pyrrolidin-2-yl)methanol]: the IC50 was below 100 nM.

Consider `COc1cc(-n2cnc(Nc3nc(N4CCC[C@H]4CO)c4ccc(-c5cccc(NS(C)(=O)=O)c5)cc4n3)c2)cc(OC)c1OC` [Compound 363b, (S)—N-(3-(4-(2-(hydroxymethyl)pyrrolidin-1-yl)-2-((1-(3,4,5-trimethoxyphenyl)-1H-imidazol-4-yl)amino)quinazolin-7-yl)phenyl)methanesulfonamide], for which the IC50 was below 100 nM.

With `COc1cc(-n2cnc(Nc3nc(N4CCC[C@H]4CO)c4ccc(-c5cccc(NC(C)=O)c5)cc4n3)c2)cc(OC)c1OC` [Compound 364b, (S)—N-(3-(4-(2-(hydroxymethyl)pyrrolidin-1-yl)-2-((1-(3,4,5-trimethoxyphenyl)-1H-imidazol-4-yl)amino)quinazolin-7-yl)phenyl)acetamide], the IC50 was below 100 nM.

In the case of `COc1cc(-n2cnc(Nc3nc(N4CCC[C@H]4CO)nc4c3CN(C(=O)OC(C)(C)C)C4)c2)cc(OC)c1OC` [Compound 365a, (S)-tert-butyl 2-(2-(hydroxymethyl)pyrrolidin-1-yl)-4-(1-(3,4,5-trimethoxyphenyl)-1H-imidazol-4-ylamino)-5H-pyrrolo[3,4-d]pyrimidine-6(7H)-carboxylate], the IC50 was below 100 nM.

Turning to `COc1cc(-n2cnc(Nc3nc(N4CCC[C@H]4CO)nc4c3CNC4)c2)cc(OC)c1OC` [Compound 365b, (S)-(1-(4-(1-(3,4,5-trimethoxyphenyl)-1H-imidazol-4-ylamino)-6,7-dihydro-5H-pyrrolo[3,4-d]pyrimidin-2-yl)pyrrolidin-2-yl)methanol], the half-maximal inhibitory concentration (IC50) was below 100 nM.

Regarding `COc1cc(-n2cnc(Nc3nc4c(c(N5CCC[C@@H]5CO)n3)CN(C(=O)OC(C)(C)C)C4)c2)cc(OC)c1OC` [Compound 366b, (R)-tert-butyl 4-(2-(hydroxymethyl)pyrrolidin-1-yl)-2-(1-(3,4,5-trimethoxyphenyl)-1H-imidazol-4-ylamino)-5H-pyrrolo[3,4-d]pyrimidine-6(7H)-carboxylate], the half-inhibitory concentration (IC50) was below 100 nM.

`COc1cc(-n2cnc(Nc3nc4c(c(N5CCC[C@@H]5CO)n3)CNC4)c2)cc(OC)c1OC` [Compound 366c, (R)-(1-(2-(1-(3,4,5-trimethoxyphenyl)-1H-imidazol-4-ylamino)-6,7-dihydro-5H-pyrrolo[3,4-d]pyrimidin-4-yl)pyrrolidin-2-yl)methanol]: the IC50 is below 100 nM.

For the molecule `OC[C@@H]1CCCN1c1cc(Cl)c2ccccc2n1` [Compound 367b, (S)-(1-(4-chloroquinolin-2-yl)pyrrolidin-2-yl)methanol], the IC50 was above 1000 nM.

As to `COc1cc(-n2cnc(Nc3cc(N4CCC[C@H]4CO)c4ccccc4n3)c2)cc(OC)c1OC` [Compound 368a, (S)-(1-(2-(1-(3,4,5-trimethoxyphenyl)-1H-imidazol-4-ylamino)quinolin-4-yl)pyrrolidin-2-yl)methanol], the IC50 lay within 100 to 1000 nM.

Turning to `COc1cc(-n2cnc(Nc3cc4ccccc4c(N4CCC[C@@H]4CO)n3)c2)cc(OC)c1OC` [Compound 369b, (R)-(1-(3-(1-(3,4,5-trimethoxyphenyl)-1H-imidazol-4-ylamino)isoquinolin-1-yl)pyrrolidin-2-yl)methanol], the IC50 fell in the range of 100 to 1000 nM.

Take `COc1cc(-c2ccc(Nc3nc(N4CCC[C@H]4CO)nc4ccccc34)nc2)cc(OC)c1OC` [Compound 370b, (S)-(1-(4-((5-(3,4,5-trimethoxyphenyl)pyridin-2-yl)amino)quinazolin-2-yl)pyrrolidin-2-yl)methanol]: the half-maximal inhibitory concentration (IC50) was above 1000 nM.

Regarding `COc1cc(-c2ccc(Nc3nc(N4CCC[C@H]4C(N)=O)nc4ccccc34)nc2)cc(OC)c1OC` [Compound 371a, (S)-1-(4-((5-(3,4,5-trimethoxyphenyl)pyridin-2-yl)amino)quinazolin-2-yl)pyrrolidine-2-carboxamide], the IC50 was above 1000 nM.

Take `COc1cc(-n2cnc(Nc3nc(N4CCC[C@@H]4CO)nc4cc(C#N)ccc34)c2)cc(OC)c1OC` [Compound 372a, (R)-2-(2-(hydroxymethyl)pyrrolidin-1-yl)-4-((1-(3,4,5-trimethoxyphenyl)-1H-imidazol-4-yl)amino)quinazoline-7-carbonitrile]: the IC50 is below 100 nM.

In the case of `COc1cc(-n2cnc(Nc3nc(N4CCC[C@H]4C(N)=O)nc4c3c(C)nn4C)c2)cc(OC)c1OC` [Compound 373c, (S)-1-(1,3-dimethyl-4-((1-(3,4,5-trimethoxyphenyl)-1H-imidazol-4-yl)amino)-1H-pyrazolo[3,4-d]pyrimidin-6-yl)pyrrolidine-2-carboxamide], the IC50 was above 1000 nM.
